Source: patent US12073966B2 (priority 2012, dated 2024)
Entries after “also recorded” stand apart in the source; their conditions may differ.

Columns and labels:
αHL pores = αHL pores (Staphylococcus aureus, UniProt P09616)
[1] = assay type: physicochemical
Description: A droplet containing pyranine (10 mM) and DPhPC (1 mg mL^−1) in 1 M KCl, 10 mM Tris·HCl, pH 7.0, was used to form a bilayer with another droplet containing DPhPC (1 mg mL^−1) but no pyranine in the same buffer. The droplets were incubated in a mixture of hexadecane/silicone oil AR20 (1:1 v/v) containing DPhPC (1 mg mL^−1).
An Ag/AgCl electrode, the cis electrode, was inserted into one droplet, and attached to the grounded end of a patch-clamp headstage (Axon Instruments, USA). A second Ag/AgCl electrode (trans) inserted in another droplet was connected to the active end. A positive potential causes the flow of anions from the cis to the trans electrode and of cations from trans to cis. The current was amplified by using a patchclamp amplifier (Axopatch 200B, Axon Instruments, USA), filtered with a low-pass Bessel filter (80 dB/decade) with a corner frequency of 1 kHz, and digitized with a Digidata 1322 A/D converter (Axon Instruments) at a sampling frequency of 20 kHz. Post-acquisition, the data were low-pass filtered at 100 Hz to 400 Hz. The droplet assembly, electrodes, and the headstage were enclosed in a metal box to minimize electrical noise.

αHL = αHL (Staphylococcus aureus, UniProt P09616); assay type: biochemical
Chain of αHL (P09616 27-319 limits assumed): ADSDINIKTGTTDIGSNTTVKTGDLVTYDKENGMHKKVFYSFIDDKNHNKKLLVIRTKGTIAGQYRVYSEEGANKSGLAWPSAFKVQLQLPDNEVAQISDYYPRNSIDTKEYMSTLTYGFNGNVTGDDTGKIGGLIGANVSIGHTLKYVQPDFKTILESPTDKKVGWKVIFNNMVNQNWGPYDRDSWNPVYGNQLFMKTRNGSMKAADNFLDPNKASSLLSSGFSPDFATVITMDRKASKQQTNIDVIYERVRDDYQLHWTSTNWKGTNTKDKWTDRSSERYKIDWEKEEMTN

Chain of αHL pores (P09616 27-319 limits assumed): as above

Compound | dye transfer through bilayers of the droplet network (αHL pores) | time of influx into droplet 4 (fastest influx) (αHL pores) [h] | time until colour change in all droplets of the second layer (αHL pores) [days] | time until αHL-containing droplets turned green (αHL pores) [h] | effect on bilayer stability ([1]; current recordings, pyranine 10 mM) | time the bilayer was stable (capacitance monitoring) ([1]; one droplet with pyranine 10 mM, DPhPC 1 mg mL^-1, hexadecane/silicone oil AR20 1:1) | effect on ionic current / electrical signal through αHL pores (αHL)
O=S(=O)(O)c1cc(O)c2ccc3c(S(=O)(=O)O)cc(S(=O)(=O)O)c4ccc1c2c34 [pyranine, 8-hydroxypyrene-1,3,6-trisulfonic acid] | only through droplets containing αHL | ≤ 13 | 4 | ~70 | did not compromise bilayer stability | at least 90 min | –
xylene cyanol | did not show any transfer; also recorded: No transfer | – | – | – | – | – | –
γ-cyclodextrin [γCD] | – | – | – | – | – | – | intermittently interrupted; also recorded: interrupted by γCD blockades
